What was measured:
[1] = test system: tau phosphorylation; conditions: previously reported; cited from earlier work
[2] = test system: 3D AD model (#A5); assay: RNA-seq canonical pathway analysis of 3D AD cultures treated with anti-Aβ drugs; type: cell-based, human; conditions: anti-Aβ drug treatment versus DMSO
Description: FIG. 15. […] Pearson correlations of global gene expression profile among 2D undifferentiated control ReN cells, 3D control (G2# B2on), AD # A5 (# A5, moderate Aβ42/40 ratio ˜0.2), AD # D4 (# D4, high Aβ42/40 ratio, ˜1.4), and AD # H10 (# H10, extra high Aβ42/40 ratio, ˜1.7). Units are log CPM. b. Volcano plots show −log10(FDR) vs log FC distribution for G2# B2 (control) vs AD # A5 (AD), AD # A5 DMSO vs AD # A5 BSI (BACE inhibitor, Ly2886721), and AD # A5 DMSO vs AD # A5 GSM (gamma secretase modulator, SGSM15606) transcriptomic signatures. […] Canonical pathway analysis between G2# B2 and AD # A5 (Ingenuity pathway analysis, Qiagen). d. Analysis of common canonical pathways. The pathway analysis among G2# B2 vs AD # A5, AD # A5 DMSO vs AD # A5 BSI, and AD # A5 DMSO vs AD # A5 GSM. Activation z-scores indicate that majority of decreased pathways in AD # A5 are restored by BSI and/or GSM treatments. e. […]
To examine the multiple single-clonal AD models, unbiased whole genome RNA-seq analyses were performed to compare gene expression profiles among the clonal AD models with different Aβ42/40 ratios, as compared to control 3D cultures and undifferentiated 2D control cells (FIG. 15a-d). […] Differential gene expression profile of 3D AD cultures were analyzed after treating anti-Aβ drugs (BACE1 inhibitor, Ly2886721; Gamma-secretase modulator (GSM), GSM15606) (FIG. 15b). […]

[3] = test system: phospho-tau (AT8) in ReNCell VM cells carrying the APPSL mutation; assay: High-content screen of phospho-tau (AT8) staining in 3D cultured FAD neural stem cells; type: cell-based, human; conditions: for inhibition of pTau / tau hyperphosphorylation: primary screen of 2,640 compounds, compound added from the beginning of culture, whole-well AT8 images
Description: FIG. 1. High-content screening. FAD-transfected neural stem cells were 3D cultured in matrigel and treated with each compound. Cells were stained with phospho-tau antibody (AT8). Images covering the whole well were taken and quantified as the readout.
A 3D human neural culture model of AD was developed by culturing ReNCell VM cells carrying the APPSL mutation in a thin layer (50˜100 μm thick) of Matrigel. This method was then miniaturized to 96, 384, or other high content well plate formats (FIG. 1) to provide a faithful model for testing the effect of compounds on AD. However, the high-throughput screening is limited by its readout of microscopy images, which cannot be analyzed manually in large quantity.
To enable high-throughput in vitro screening, an image-processing program was developed, based on NeuriteIQ software^17-23 (FIG. 2A), to automatically quantify tau phosphorylation from images of cultured cells. The program processes images from th e nucleus and neurite channels separately. In the nucleus channel, nuclei are detected and segmented by local maximum detection and watershed method. In the neurite channel, phospho-tau stained cells are treated as two-dimensional curvilinear structures and processed based on the local Hessian matrix^24,25, which allows the detection of center points and local directions of neurites in a field. The program reliably quantified the number of neurons with hyper-phosphorylated tau (FIG. 2B). Thus, a high-content screening system for the identification of compounds targeting the tau pathology in AD was established.
Known drug and bioactive compounds (2,640 compounds) were selected for the initial screen from the Sigma-Aldrich LOPAC (1280), Tocriscreen Total Library (1120), and a manual selection of 240 Kinase Inhibitors. […] A few of the 38 compounds have been previously reported to inhibit tau phosphorylation in AD animal models (e.g., baicalein^26 and tretinoin^27), further validating the credibility of the screen. Most, however, are novel AD candidates.

[4] = test system: 3D AD cell model transcriptome; assay: Whole genome RNAseq after compound treatment versus control; type: cell-based, human; conditions: for immune and inflammatory related pathways (5 of 6 connected to 12 down-regulated genes): after treatment versus control; for down-regulated genes in PPI subnetwork, shared by both treatments / up-regulated genes in PPI subnetwork, shared by both treatments: |log FC|>1.5 versus control
Description: PPI information was extracted from STRING database version 10.5 with the cutoff for confidence score at 0.4.
Given ebselen and leflunomide in FIG. 17, an unbiased whole genome RNAseq analysis was used to obtain transcriptomic profiles after the treatment of each compound and compare them separately to control conditions. For both treatments, a subset of genes and pathways show significant change (|log FC|>1.5) in the same direction over control condition. […] These 22 genes have 102 PPI pairs among them, and there are 7 genes directly connected to APP (coding Aβ) or MAPT (coding Tau).
It's worth noting that the enrichment of immune and inflammatory related pathway changes is consistent with the characteristics of the 3D cell model, as this system contains astrocytes, which is one of the brain innate immune cells. […] Also, neuroinflammatory pathways are highly unregulated in high Abeta42/40 lines (D4 and H10) as compared to A5 (similar to GA2) (data not shown).

[5] = test system: p-tau (pSer396/Ser404); assay: Quantitative immunofluorescence staining in 3D AD models with high Aβ42/40 ratios; type: cell-based, human; conditions: 5 μM for 3 weeks
Description: FIG. 17. Validation of primary hit candidates. Primary hit candidates were confirmed using Western blot analysis (a) and quantitative immunofluorescence staining in 3D AD models with high Aβ42/40 ratios (# HReN and # A4H1) (b). PHF1 pSer396/Ser404 tau antibody was used to detect changes in phospho tau in 3D AD # HReN cells treated with DMSO vehicle, ebselen, or leflunomide.
In addition to MSD Mesoscale ELISA shown in FIG. 16, quantitative Western blot and immunofluorescence analysis were used to validate candidate drugs. […] Ebselen and leflunomide are compounds screened from original HCS screening of […] biologically active/FDA-approved drug library. […] Moreover, quantitative immunofluorescence staining was used to analyze p-tau changes after treating these compounds.

[6] = test system: pTau in AD-in-a-dish model; assay: Validation of SMART-predicted compounds in the reformatted high content AD-in-a-dish model; parameters: species or system human; conditions: cell-based validation of 26 purchased SMART predictions
Description: Twenty-two of the 38 aforementioned screening hits had LINCS data covering the perturbation profiles for at least 4 cell lines. From these 22 hits, 2 were eliminated because no known drug candidates ranked high enough based on transcriptomic similarities to these two primary hits; and 3 others were removed upon inspection of the compound properties of the predictions they made, i.e., the predicted drugs may be toxic or unfit for systematic use. Thus, the 17 primary hits shown in Table 1 were used to initiate a pilot run using the SMART framework. The cMAP algorithm^7 was used to rank all compounds in the LINCSCloud, based on the similarity of transcriptomic profiles to each of the 17 primary hits. If any compound was determined by cMAP algorithm to have a similarity score larger than 90 to at least one of the primary hits, it was identified as a hit candidate. After filtering based on pharmacology features, 85 candidates predicted by 17 primary hits (Table 1) remained; 26 of these 85 compounds were purchased for validation after analysis for pharmacology and medical practice features.

CC1=C(/C=C/C(C)=C/C=C/C(C)=C/C(=O)O)C(C)(C)CCC1 [retinoic acid]
tau phosphorylation in AD animal models [1]: inhibit

COc1nc(-c2cc(C)c(NC(C)c3ccc(F)cc3)nn2)ccc1-n1cnc(C)c1 (centres unmarked) [GSM15606]
enriched canonical pathways of the 3D AD model [2]: significantly altered

CCC(C)[C@H]1O[C@]2(CC[C@@H]1C)C[C@@H]1C[C@@H](C/C=C(\C)[C@@H](O[C@H]3C[C@H](OC)[C@@H](O[C@H]4C[C@H](OC)[C@@H](O)[C@H](C)O4)[C@H](C)O3)[C@@H](C)/C=C/C=C3\CO[C@@H]4[C@H](O)C(C)=C[C@@H](C(=O)O1)[C@]34O)O2 (some centres unmarked) [ivermectin]
inhibition of pTau / tau hyperphosphorylation [3]: almost completely inhibited
inhibition of pTau / tau hyperphosphorylation ([3]; listed as Ivermectin): most significant phenotype

Cc1oncc1C(=O)Nc1ccc(C(F)(F)F)cc1 [leflunomide]
immune and inflammatory related pathways (5 of 6 connected to 12 down-regulated genes) [4]: significantly down-regulated
down-regulated genes in PPI subnetwork, shared by both treatments [4]: 15 genes
up-regulated genes in PPI subnetwork, shared by both treatments [4]: 7 genes
cellular viability and neurite networks [5]: without affecting
p-tau (pSer396/Ser404) accumulation [5]: robustly decreased

Oc1c(Cl)cc(Cl)c2cccnc12 [chloroxine]
inhibition of pTau [6]: validated hits

N=C(N)c1ccc(OCCCCCOc2ccc(C(=N)N)cc2)cc1 [pentamidine, pentamidine isethionate]
inhibition of pTau / tau hyperphosphorylation [3]: almost completely inhibited

NC1=N[C@@]2(c3cc(NC(=O)c4ccc(F)cn4)ccc3F)COC[C@H]2CS1 [Ly2886721]
enriched canonical pathways of the 3D AD model [2]: significantly altered

O=c1cc(-c2ccccc2)oc2cc(O)c(O)c(O)c12 [baicalein]
tau phosphorylation in AD animal models [1]: inhibit

O=c1c2ccccc2[se]n1-c1ccccc1 [ebselen]
immune and inflammatory related pathways (5 of 6 connected to 12 down-regulated genes) [4]: significantly down-regulated
down-regulated genes in PPI subnetwork, shared by both treatments [4]: 15 genes
up-regulated genes in PPI subnetwork, shared by both treatments [4]: 7 genes

CC[N+](CC)(CC)CCOc1ccc(/C=C/c2ccccc2)cc1 [MG624, mg 624]
tau phosphorylation, late addition ([3]; compound added after week 2, when tau phosphorylation should have already developed): significantly reduced
tau phosphorylation, late addition ([3]; compound added after week 4, cells fixed and stained at week 6): significantly reduced
inhibition of pTau / tau hyperphosphorylation [3]: almost completely inhibited

C1CCC(C(CC2CCCCN2)C2CCCCC2)CC1.O=C(O)/C=C\C(=O)O (centres unmarked) [Perhexiline, perhexiline maleate]
inhibition of pTau [6]: successful predictions
